Assay results from patent US12337009B2, “Nucleotide derivatives and methods of use thereof” (The Trustees of Columbia University in the City of New York, priority 2016, dated 2025).

Legend:
DNA polymerase = test system: DNA polymerase
Text: FIGS. 23A-23B. MALDI-TOF mass spectra of DNA extension products from polymerase reactions using 3′-O-Rox-SS-dATP for 5, 10, and 30 cycles.
FIGS. 25A-25C. MALDI-TOF mass spectrum of DNA extension products from polymerase reactions using a mixture of 3′-O-tButyl-SS-dATP and 3′-O-Rox-SS-dATP at a 1:1 ratio. […] FIG. 25B: 3′-O-tButyl-SS-dATP (M.W. 625). FIG. 25C: 3′-O-Rox-SS-dATP (M.W. 1157).
FIG. 26. MALDI-TOF mass spectrum of a DNA extension product from polymerase reaction using 3′-O-TCO-SS-dTTP.
FIGS. 27A-27B. MALDI-TOF mass spectrum of a DNA extension product from polymerase reaction using 3′-O-Biotin-dCTP.
FIGS. 28A-28C. MALDI-TOF mass spectrum of DNA extension products from polymerase reaction using with a mixture of 3′-O-Rox-SS-dATP and 3′-O-Rox-PEG4-SS-dATP at a 1:1 ratio.

[1] = test system: Therminator IX DNA polymerase; experiment: Polymerase extension reaction with 3′-O-modified reversible terminators, MALDI-TOF MS readout; assay type: biochemical; conditions: extension reactions incl. 1:1 mixtures of two terminators, MALDI-TOF MS (FIGS. 23A-28C)
Description: The reaction was conducted in an ABI GeneAmp PCR System 9700 with initial incubation at 65° C. for 30 second, followed by 38 cycles of 65° C./30 sec, 45° C./30 sec, 65° C./30 sec. Multiple reactions were carried out and an aliquot of the reaction mixture was desalted using a C18 ZipTip column (Millipore, MA) and analyzed by MALDI-TOF MS (ABI Voyager DE). Polymerase extension reaction using 3'-O-SS-Rox-dATP for 5, 10, and 30 cycles. […] The reactions were conducted in an ABI GeneAmp PCR System 9700 with initial incubation at 65° C. for 30 second, followed by 5, 10, or 30 cycles of 65° C./30 sec, 45° C./30 sec, 65° C./30 sec. The reaction mixtures were desalted using Oligo Clean & ConcentratorTM (ZYMO Research) and analyzed by MALDI-TOF MS (ABI Voyager DE) and the results are shown in FIGS. 23A-23B. DNA template: [NT] ID NO:6). […] The reaction mixtures were desalted using Oligo Clean & ConcentratorTM (ZYMO Research) and analyzed by MALDI-TOF MS (ABI Voyager DE) the result is shown in FIG. 24. […] The reaction mixtures were desalted using Oligo Clean & ConcentratorTM (ZYMO Research) and analyzed by MALDI-TOF MS (ABI Voyager DE) the result is shown in FIGS. 25A-25C. […] The reaction mixtures were desalted using Oligo Clean & ConcentratorTM (ZYMO Research) and analyzed by MALDI-TOF MS (ABI Voyager DE) the result is shown in FIGS. 28A-28C. […]

## CC(C)(C)SSCO[C@H]1C[C@H](n2cnc3c(N)ncnc32)O[C@@H]1COP(=O)(O)OP(=O)(O)OP(=O)(O)O [3′-O-tButyl-SS-dATP, 3′-O-t-Butyldithiomethyl(SS)-dATP]
DNA polymerase; after 5 cycles of extension
  extension: completed
DNA polymerase; mixture at a 1:1 ratio
  efficiency of incorporation by polymerase versus 3′-O-Rox-SS-dATP: much higher efficiency
DNA polymerase; mixture at a 1:1 ratio, after 5 cycles
  height of the extension product peak versus that with 3′-O-Rox-SS-dATP: more than twice
[1]
  incorporation efficiency relative to another nucleotide analogue: much higher efficiency than 3′-O-Rox-SS-dATP
